Test results: ChEMBL document CHEMBL1158509, “Novel selective thiazoleacetic acids as CRTH2 antagonists developed from in silico derived hits. Part 2” (Bioorg Med Chem Lett, 2010)
Values after ≈ are worked out from the molar mass of the structure shown.

Key:
[1] = biological target: Prostaglandin G/H synthase 1 (Homo sapiens) (UniProt P23219); experiment: Inhibition of COX1 at 10 uM
[2] = biological target: T1, Prostaglandin G/H synthase 2 (Homo sapiens) (UniProt P35354); experiment: Inhibition of COX2 at 10 uM
T1 sequence (whole entry): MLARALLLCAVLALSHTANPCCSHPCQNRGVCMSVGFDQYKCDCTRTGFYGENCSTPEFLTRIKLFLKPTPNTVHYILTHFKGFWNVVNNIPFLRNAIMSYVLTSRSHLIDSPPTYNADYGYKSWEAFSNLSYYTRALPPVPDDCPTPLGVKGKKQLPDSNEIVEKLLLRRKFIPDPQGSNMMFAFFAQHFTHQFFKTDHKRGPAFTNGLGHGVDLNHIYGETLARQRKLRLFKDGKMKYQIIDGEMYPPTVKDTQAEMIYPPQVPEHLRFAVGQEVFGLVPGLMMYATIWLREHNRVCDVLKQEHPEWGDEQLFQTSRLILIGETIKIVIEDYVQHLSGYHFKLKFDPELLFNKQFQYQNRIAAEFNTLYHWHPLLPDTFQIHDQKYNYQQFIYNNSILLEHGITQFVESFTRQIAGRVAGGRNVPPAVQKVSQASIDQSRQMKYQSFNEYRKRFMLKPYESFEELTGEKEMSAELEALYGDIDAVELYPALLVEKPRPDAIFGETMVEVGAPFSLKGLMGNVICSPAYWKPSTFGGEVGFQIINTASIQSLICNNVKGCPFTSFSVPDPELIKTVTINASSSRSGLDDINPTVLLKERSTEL

[3] = Metabolic stability in human liver S9 fraction assessed as compound remaining; type: ADME, subcellular
[4] = biological target: T2, Prostaglandin D2 receptor 2 (Homo sapiens, UniProt Q9Y5Y4); experiment: Displacement of[3H]PGD2 from human CRTH2 receptor expressed in […] cells; type: cell-based
T2 sequence (Q9Y5Y4 whole entry): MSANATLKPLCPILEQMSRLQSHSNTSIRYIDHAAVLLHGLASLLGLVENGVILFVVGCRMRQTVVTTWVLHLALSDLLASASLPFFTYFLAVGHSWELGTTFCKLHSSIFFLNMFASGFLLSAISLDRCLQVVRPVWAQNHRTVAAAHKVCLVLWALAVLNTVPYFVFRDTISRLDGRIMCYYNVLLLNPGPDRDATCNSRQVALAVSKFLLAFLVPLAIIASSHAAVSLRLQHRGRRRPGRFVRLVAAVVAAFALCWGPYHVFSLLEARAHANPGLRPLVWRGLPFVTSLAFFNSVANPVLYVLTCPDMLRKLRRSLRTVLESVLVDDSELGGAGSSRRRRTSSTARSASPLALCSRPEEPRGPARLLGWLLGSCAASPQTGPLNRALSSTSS

[5] = Aqueous solubility at pH 7.4; type: physicochemical
[6] = Half life in rat; type: ADME, organism-based; details: in vivo
[7] = biological target: T3, Prostaglandin D2 receptor 2 (Homo sapiens) (UniProt Q9Y5Y4); experiment: Antagonist activity at human CRTH2 receptor expressed in […] cells assessed as inhibition of beta arrestin translocation by bioluminescence resonance energy transfer assay relative to control; type: functional, cell-based
T3 sequence (whole entry): T2 sequence (Q9Y5Y4 whole entry)

[8] = Clearance in rat; type: ADME, organism-based; details: in vivo
[9] = biological target: CYP2D6 (Homo sapiens, UniProt P10635); experiment: Inhibition of CYP2D6 at 1 uM; type: ADME
Sequence of CYP2D6 (P10635 whole entry): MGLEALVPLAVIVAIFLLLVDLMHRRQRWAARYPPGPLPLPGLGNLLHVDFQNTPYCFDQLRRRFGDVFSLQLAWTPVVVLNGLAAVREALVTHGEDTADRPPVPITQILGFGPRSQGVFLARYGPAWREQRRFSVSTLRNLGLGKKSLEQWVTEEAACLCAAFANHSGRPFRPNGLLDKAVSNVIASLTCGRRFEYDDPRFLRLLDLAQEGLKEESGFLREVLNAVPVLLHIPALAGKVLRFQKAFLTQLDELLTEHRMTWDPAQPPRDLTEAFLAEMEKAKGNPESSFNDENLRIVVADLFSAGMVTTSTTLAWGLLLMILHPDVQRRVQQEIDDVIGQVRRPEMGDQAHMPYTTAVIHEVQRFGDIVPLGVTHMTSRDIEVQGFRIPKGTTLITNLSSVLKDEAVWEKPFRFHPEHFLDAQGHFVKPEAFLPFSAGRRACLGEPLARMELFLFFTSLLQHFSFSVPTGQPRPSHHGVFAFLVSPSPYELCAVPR

[10] = biological target: CYP3A4 (Homo sapiens, UniProt P08684); experiment: Inhibition of CYP3A4 at 1 uM; type: ADME
Sequence of CYP3A4 (P08684 whole entry): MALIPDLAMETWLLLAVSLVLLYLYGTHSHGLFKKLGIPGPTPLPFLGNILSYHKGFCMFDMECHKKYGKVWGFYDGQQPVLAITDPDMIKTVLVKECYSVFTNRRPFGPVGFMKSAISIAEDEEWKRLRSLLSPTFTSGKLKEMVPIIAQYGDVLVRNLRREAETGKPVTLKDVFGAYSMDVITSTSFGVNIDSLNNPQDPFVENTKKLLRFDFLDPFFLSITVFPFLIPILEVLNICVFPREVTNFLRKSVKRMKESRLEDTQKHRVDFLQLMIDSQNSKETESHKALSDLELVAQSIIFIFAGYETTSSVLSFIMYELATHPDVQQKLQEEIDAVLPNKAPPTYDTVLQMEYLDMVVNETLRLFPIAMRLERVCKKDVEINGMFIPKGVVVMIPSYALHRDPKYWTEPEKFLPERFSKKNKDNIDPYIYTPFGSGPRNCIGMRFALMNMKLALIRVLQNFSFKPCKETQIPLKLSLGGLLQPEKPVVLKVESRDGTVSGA

[11] = biological target: T2, Prostaglandin D2 receptor 2; experiment: Antagonist activity at human CRTH2 receptor expressed in […] cells assessed as inhibition of beta arrestin translocation by bioluminescence resonance energy transfer assay; type: functional, cell-based
[12] = Bioavailability in rat; type: ADME, organism-based; details: in vivo
[13] = biological target: Phospholipase A2 (Homo sapiens) (UniProt P04054); experiment: Inhibition of PLA2 at 10 uM
Sequence of Phospholipase A2 (Homo sapiens) (P04054 23-148 limits assumed): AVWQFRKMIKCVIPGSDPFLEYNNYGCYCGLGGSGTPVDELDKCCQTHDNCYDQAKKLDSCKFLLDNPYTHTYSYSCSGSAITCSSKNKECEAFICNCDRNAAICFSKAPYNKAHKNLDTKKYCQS

[14] = Permeability apical to basolateral side in human Caco-2 cells; type: ADME, cell-based; details: read-out: permeability
[15] = Metabolic stability in rat liver S9 fraction assessed as compound remaining; type: ADME, subcellular
[16] = biological target: T4, Polyunsaturated fatty acid lipoxygenase ALOX15 (Homo sapiens) (UniProt P16050); experiment: Inhibition of 15-lipoxygenase at 10 uM
T4 sequence (whole entry): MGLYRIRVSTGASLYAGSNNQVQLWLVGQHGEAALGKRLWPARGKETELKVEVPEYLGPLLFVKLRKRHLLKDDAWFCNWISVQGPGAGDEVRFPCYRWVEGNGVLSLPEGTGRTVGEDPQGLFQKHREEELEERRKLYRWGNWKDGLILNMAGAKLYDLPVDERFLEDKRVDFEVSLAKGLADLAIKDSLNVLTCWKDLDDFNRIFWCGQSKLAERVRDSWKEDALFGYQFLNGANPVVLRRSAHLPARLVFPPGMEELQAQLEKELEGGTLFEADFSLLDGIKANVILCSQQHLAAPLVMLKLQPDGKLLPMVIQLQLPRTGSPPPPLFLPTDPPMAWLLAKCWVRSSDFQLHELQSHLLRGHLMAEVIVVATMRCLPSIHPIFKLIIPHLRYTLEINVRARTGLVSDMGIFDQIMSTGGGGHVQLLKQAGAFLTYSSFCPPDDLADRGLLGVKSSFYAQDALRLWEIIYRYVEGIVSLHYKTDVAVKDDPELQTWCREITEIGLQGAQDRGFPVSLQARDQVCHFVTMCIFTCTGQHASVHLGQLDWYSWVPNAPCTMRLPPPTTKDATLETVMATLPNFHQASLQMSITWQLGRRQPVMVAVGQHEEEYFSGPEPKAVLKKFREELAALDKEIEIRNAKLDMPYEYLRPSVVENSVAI

[17] = biological target: T5, Prostaglandin D2 receptor (Homo sapiens, UniProt Q13258); experiment: Inhibition of DP1 receptor
T5 sequence (Q13258 whole entry): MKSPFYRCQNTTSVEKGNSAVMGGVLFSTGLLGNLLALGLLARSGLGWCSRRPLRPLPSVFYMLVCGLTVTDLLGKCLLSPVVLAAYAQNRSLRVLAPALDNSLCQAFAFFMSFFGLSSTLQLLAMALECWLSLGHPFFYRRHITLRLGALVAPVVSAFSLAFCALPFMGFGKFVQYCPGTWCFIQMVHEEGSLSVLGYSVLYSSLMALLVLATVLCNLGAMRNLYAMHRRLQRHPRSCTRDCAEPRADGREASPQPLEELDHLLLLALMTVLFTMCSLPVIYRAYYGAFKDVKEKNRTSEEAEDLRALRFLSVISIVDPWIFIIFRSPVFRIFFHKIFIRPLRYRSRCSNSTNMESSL

[18] = Aqueous solubility at pH 1; type: physicochemical
[19] = biological target: T6, Polyunsaturated fatty acid lipoxygenase ALOX12 (Homo sapiens) (UniProt P18054); experiment: Inhibition of 12-lipoxygenase at 10 uM
T6 sequence (whole entry): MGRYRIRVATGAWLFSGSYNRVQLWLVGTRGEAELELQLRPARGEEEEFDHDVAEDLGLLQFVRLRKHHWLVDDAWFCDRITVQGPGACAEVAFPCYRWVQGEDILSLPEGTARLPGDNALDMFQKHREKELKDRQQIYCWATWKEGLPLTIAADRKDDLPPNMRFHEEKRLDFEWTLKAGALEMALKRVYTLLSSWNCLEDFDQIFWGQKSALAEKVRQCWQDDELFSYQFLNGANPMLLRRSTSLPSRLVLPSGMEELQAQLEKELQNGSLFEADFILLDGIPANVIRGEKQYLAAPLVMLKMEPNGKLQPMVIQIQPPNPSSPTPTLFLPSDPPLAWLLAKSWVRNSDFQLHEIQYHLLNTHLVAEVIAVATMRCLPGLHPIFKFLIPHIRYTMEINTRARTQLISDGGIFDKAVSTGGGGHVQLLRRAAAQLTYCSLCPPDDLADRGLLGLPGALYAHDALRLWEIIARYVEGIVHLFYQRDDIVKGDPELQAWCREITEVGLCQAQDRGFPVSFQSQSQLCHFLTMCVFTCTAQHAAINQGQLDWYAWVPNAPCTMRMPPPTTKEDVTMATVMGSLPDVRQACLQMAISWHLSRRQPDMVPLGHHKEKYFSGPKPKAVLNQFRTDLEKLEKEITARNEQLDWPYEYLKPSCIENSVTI

[20] = biological target: T2, Prostaglandin D2 receptor 2; experiment: Displacement of[3H]PGD2 from human CRTH2 receptor expressed in african green monkey COS7 cells; type: cell-based, COS-7
[21] = Octanol-water distribution coefficient, log D at pH 7.4; type: physicochemical

Sequence of Prostaglandin G/H synthase 1 (Homo sapiens) (P23219 whole entry): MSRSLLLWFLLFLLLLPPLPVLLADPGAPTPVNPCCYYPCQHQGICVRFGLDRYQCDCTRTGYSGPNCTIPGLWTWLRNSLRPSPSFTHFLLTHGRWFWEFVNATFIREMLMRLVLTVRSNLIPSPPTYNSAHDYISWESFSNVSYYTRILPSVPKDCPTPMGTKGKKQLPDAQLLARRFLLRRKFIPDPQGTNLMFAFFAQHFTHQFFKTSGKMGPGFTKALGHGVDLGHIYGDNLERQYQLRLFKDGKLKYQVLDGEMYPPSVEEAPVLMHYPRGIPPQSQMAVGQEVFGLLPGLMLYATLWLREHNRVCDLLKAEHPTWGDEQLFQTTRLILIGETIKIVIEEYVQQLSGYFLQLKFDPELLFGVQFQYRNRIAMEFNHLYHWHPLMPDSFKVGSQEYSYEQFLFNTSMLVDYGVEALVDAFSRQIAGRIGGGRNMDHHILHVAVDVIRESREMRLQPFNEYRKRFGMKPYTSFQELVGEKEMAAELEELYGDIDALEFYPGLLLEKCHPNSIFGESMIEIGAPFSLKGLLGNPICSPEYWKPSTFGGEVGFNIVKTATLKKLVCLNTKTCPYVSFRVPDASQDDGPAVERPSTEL

IC50 [4] [nM] | Efficacy [7] [%] | IC50 [11] [nM] | SMILES | further results
14 | 50 | 60 | O=C(O)Cc1sc(C(c2ccccc2)c2ccccc2)nc1-c1ccc(Cl)cc1 | inhibition [1]: 20%; inhibition [2]: 20%; Stability [3]: 98.5%; solubility [5]: 154 µM (≈ 64.7 µg/mL); half-life [6]: 24 h; clearance [8]: 27 mL/min/kg; inhibition at 1 µM [9]: 97.8%; inhibition at 1 µM [10]: 69%; bioavailability [12]: 62%; inhibition [13]: 20%; Papp A→B [14]: 2.6 ×10⁻⁶ cm/s; Stability [15]: 2.1%; inhibition [16]: 20%; IC50 [17]: 100000 nM; solubility [18]: 197 µM (≈ 82.7 µg/mL); inhibition [19]: 20%
– | 50 | 3800 | O=C(O)Cc1sc(-c2ccco2)nc1-c1ccc(Cl)cc1 | IC50 [20]: 550 nM
– | 50 | 41000 | Cc1nc(-c2ccc(Cl)cc2)c(CC(=O)O)s1 | IC50 [20]: 5500 nM
3.6 | 80 | 31 | COc1ccc(C(c2ccccc2)c2nc(-c3ccc(F)cc3)c(CC(=O)O)s2)cc1 (stereo unspecified) | Stability [3]: 3.3%; half-life [6]: 8.5 h; clearance [8]: 70 mL/min/kg; inhibition at 1 µM [9]: 5.8%; inhibition at 1 µM [10]: 4.4%; bioavailability [12]: 81%; Stability [15]: 0%; solubility [18]: 40 µM (≈ 17.3 µg/mL); logD [21]: 3
17 | 80 | 36 | O=C(O)Cc1sc(C(c2ccccc2)c2ccc(F)cc2)nc1-c1ccc(Cl)cc1 (stereo unspecified) | –
57 | 80 | 520 | N#Cc1cc(-c2nc(C(c3ccc(F)cc3)c3ccc(F)cc3)sc2CC(=O)O)ccc1F | –
35 | 80 | 340 | O=C(O)Cc1sc(C(c2ccc(F)cc2)c2ccc(F)cc2)nc1-c1cc(F)cc(F)c1 | –
25 | 80 | 170 | CNc1cc(-c2nc(C(c3ccc(F)cc3)c3ccc(F)cc3)sc2CC(=O)O)ccn1 | –
71 | 80 | 300 | O=C(O)Cc1sc(C(c2ccc(F)cc2)c2ccc(F)cc2)nc1-c1cncc(F)c1 | –
660 | 80 | > 100000 | O=C(O)Cc1sc(C(c2ccc(F)cc2)c2ccc(F)cc2)nc1-c1ccnc(N2CCC2)c1 | –
880 | 80 | > 100000 | Cc1cc(-c2nc(C(c3ccc(F)cc3)c3ccc(F)cc3)sc2CC(=O)O)cnc1N | –
2.9 | 80 | 29 | O=C(O)Cc1sc(C(c2ccccc2)c2ccccc2)nc1-c1cccc(F)c1 | –
650 | 50 | 390 | O=C(O)Cc1sc(NCCc2ccccc2)nc1-c1ccc(Cl)cc1 | –
3.1 | 80 | 53 | Cc1cc(-c2nc(C(c3ccc(F)cc3)c3ccc(F)cc3)sc2CC(=O)O)ccn1 | –
4.8 | 80 | 64 | Nc1cc(-c2nc(C(c3ccc(F)cc3)c3ccc(F)cc3)sc2CC(=O)O)ccn1 | –
500 | 50 | 2000 | O=C(O)Cc1sc(C2COc3ccccc3O2)nc1-c1ccc(Cl)cc1 (stereo unspecified) | –
3.1 | 80 | 39 | O=C(O)Cc1sc(C(c2ccc(F)cc2)c2ccc(F)cc2)nc1-c1ccnc(Cl)c1 | –
